ChEMBL document CHEMBL1201862, “PubChem BioAssay data set” (2004)
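These data come from cells grown in 96-well plates and exposed to compound for 48 hours at five concentrations. GI50 marks 50% less growth.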 Activity calls are given as the source filed them. No stated cut-off is given here; in the data, active = GI50 up to about 1.1 µM and inactive = higher.

Experiments:
Test in all cases: NCI anticancer screen, dose series, 48 h
[1] = test system: CCRF-CEM
[2] = test system: NCI/ADR-RES
[3] = test system: HOP-62
[4] = test system: MDA-MB-231
[5] = test system: HOP-92
[6] = test system: Malme-3M
[7] = test system: T47D
[8] = test system: UACC-62
[9] = test system: UO-31
[10] = test system: NCI-H23
[11] = test system: HCT-116
[12] = test system: RPMI-8226
[13] = test system: PC-3
[14] = test system: SK-MEL-28
[15] = test system: OVCAR-5
[16] = test system: 786-0
[17] = test system: OVCAR-4
[18] = test system: NCI-H522
[19] = test system: NCI-H226
[20] = test system: A549
[21] = test system: KM12
[22] = test system: NCI-H460
[23] = test system: SR
[24] = test system: EKVX
[25] = test system: MCF7
[26] = test system: MDA-N
[27] = test system: OVCAR-8
[28] = test system: UACC-257
[29] = test system: SNB-19
[30] = test system: ACHN
[31] = test system: LOX IMVI
[32] = test system: SNB-75
[33] = test system: HCT-15
[34] = test system: SK-MEL-2
[35] = test system: COLO 205
[36] = test system: HCC 2998
[37] = test system: SK-MEL-5
[38] = test system: SF-295
[39] = test system: IGROV-1
[40] = test system: DU-145
[41] = test system: SW-620
[42] = test system: HL-60
[43] = test system: TK-10
[44] = test system: K562
[45] = test system: SK-OV-3
[46] = test system: Hs-578T
[47] = test system: SF-539
[48] = test system: MDA-MB-435
[49] = test system: MOLT-4
[50] = test system: BT-549
[51] = test system: SN12C
[52] = test system: OVCAR-3
[53] = test system: M14
[54] = test system: SF-268
[55] = test system: HT-29
[56] = test system: U-251
[57] = test system: CAKI-1
[58] = test system: RXF 393

## O=c1cc(/N=N\c2ccc(Br)cc2)[nH]c(=S)[nH]1
[1]
  GI50: 14.6 µM (inactive)
[2]
  GI50: 61.2 µM (inactive)
[3]
  GI50: > 100 µM (inactive)
[4]
  GI50: 17.6 µM (inactive)
[5]
  GI50: 19.5 µM (inactive)
[6]
  GI50: 16.4 µM (inactive)
[7]
  GI50: 17.3 µM (inactive)
[8]
  GI50: 78.3 µM (inactive)
[9]
  GI50: 55.8 µM (inactive)
[10]
  GI50: 32.7 µM (inactive)
[11]
  GI50: 18.2 µM (inactive)
[12]
  GI50: 15.9 µM (inactive)
[13]
  GI50: 61.1 µM (inactive)
[14]
  GI50: 20.4 µM (inactive)
[15]
  GI50: 25.6 µM (inactive)
[16]
  GI50: 4.7 µM (inactive)
[17]
  GI50: 18.1 µM (inactive)
[18]
  GI50: 15.5 µM (inactive)
[19]
  GI50: > 100 µM (inactive)
[20]
  GI50: > 100 µM (inactive)
[21]
  GI50: 45.1 µM (inactive)
[22]
  GI50: 32.7 µM (inactive)
[23]
  GI50: 27.6 µM (inactive)
[24]
  GI50: 19.8 µM (inactive)
[25]
  GI50: 15.8 µM (inactive)
[26]
  GI50: 49.5 µM (inactive)
[27]
  GI50: 23.1 µM (inactive)
[28]
  GI50: 27 µM (inactive)
[29]
  GI50: 61 µM (inactive)
[30]
  GI50: 15.9 µM (inactive)
[31]
  GI50: 15.3 µM (inactive)
[32]
  GI50: > 100 µM (inactive)
[33]
  GI50: 14.9 µM
[34]
  GI50: 11.9 µM (inactive)
[35]
  GI50: 21.9 µM (inactive)
[36]
  GI50: 17.8 µM (inactive)
[37]
  GI50: 57.1 µM (inactive)
[38]
  GI50: > 100 µM (inactive)
[39]
  GI50: 53.1 µM (inactive)
[40]
  GI50: 61.1 µM (inactive)
[41]
  GI50: 27.2 µM (inactive)
[42]
  GI50: 19.3 µM (inactive)
[43]
  GI50: 17.3 µM (inactive)
[44]
  GI50: 21.7 µM (inactive)
[45]
  GI50: > 100 µM (inactive)
[46]
  GI50: 32.7 µM (inactive)
[47]
  GI50: 70.1 µM (inactive)
[48]
  GI50: 19.7 µM (inactive)
[49]
  GI50: 24.5 µM (inactive)
[50]
  GI50: 56.6 µM (inactive)
[51]
  GI50: 96.4 µM (inactive)
[52]
  GI50: 15.4 µM (inactive)
[53]
  GI50: 15.7 µM (inactive)
[54]
  GI50: 39.3 µM (inactive)
[55]
  GI50: 18.4 µM (inactive)
[56]
  GI50: 36.4 µM (inactive)
[57]
  GI50: 10.4 µM (inactive)
[58]
  GI50: 16.9 µM (inactive)

## CCSCC(=O)N1CCc2c([nH]c3ccccc23)C1=O
[1]
  GI50: > 100 µM (inactive)
[2]
  GI50: > 100 µM (inactive)
[3]
  GI50: > 100 µM (inactive)
[4]
  GI50: > 100 µM (inactive)
[5]
  GI50: 22.9 µM (inactive)
[6]
  GI50: > 100 µM (inactive)
[7]
  GI50: > 100 µM (inactive)
[8]
  GI50: 97.5 µM (inactive)
[9]
  GI50: > 100 µM (inactive)
[10]
  GI50: > 100 µM (inactive)
[11]
  GI50: > 100 µM (inactive)
[13]
  GI50: > 100 µM (inactive)
[14]
  GI50: > 100 µM (inactive)
[15]
  GI50: 91 µM (inactive)
[16]
  GI50: > 100 µM (inactive)
[17]
  GI50: > 100 µM (inactive)
[18]
  GI50: 64.4 µM (inactive)
[19]
  GI50: > 100 µM (inactive)
[20]
  GI50: > 100 µM (inactive)
[21]
  GI50: > 100 µM (inactive)
[22]
  GI50: > 100 µM (inactive)
[23]
  GI50: > 100 µM (inactive)
[24]
  GI50: 12.6 µM (inactive)
[25]
  GI50: 96.6 µM (inactive)
[26]
  GI50: > 100 µM (inactive)
[27]
  GI50: > 100 µM (inactive)
[28]
  GI50: 71.4 µM (inactive)
[29]
  GI50: > 100 µM (inactive)
[30]
  GI50: > 100 µM (inactive)
[31]
  GI50: > 100 µM (inactive)
[32]
  GI50: 78 µM (inactive)
[33]
  GI50: > 100 µM
[34]
  GI50: > 100 µM (inactive)
[35]
  GI50: > 100 µM (inactive)
[36]
  GI50: > 100 µM (inactive)
[37]
  GI50: > 100 µM (inactive)
[38]
  GI50: > 100 µM (inactive)
[39]
  GI50: > 100 µM (inactive)
[40]
  GI50: > 100 µM (inactive)
[41]
  GI50: > 100 µM (inactive)
[42]
  GI50: > 100 µM (inactive)
[43]
  GI50: > 100 µM (inactive)
[44]
  GI50: > 100 µM (inactive)
[45]
  GI50: > 100 µM (inactive)
[46]
  GI50: 23.2 µM (inactive)
[47]
  GI50: > 100 µM (inactive)
[48]
  GI50: > 100 µM (inactive)
[49]
  GI50: > 100 µM (inactive)
[50]
  GI50: > 100 µM (inactive)
[51]
  GI50: > 100 µM (inactive)
[52]
  GI50: > 100 µM (inactive)
[53]
  GI50: > 100 µM (inactive)
[54]
  GI50: > 100 µM (inactive)
[55]
  GI50: > 100 µM (inactive)
[56]
  GI50: > 100 µM (inactive)
[57]
  GI50: > 100 µM (inactive)
[58]
  GI50: > 100 µM (inactive)
